Assay results from US20180311236A1 (AB SCIENCE, priority 2015, published 2018).

Assays:
C57BL/6 mice = assay: Mortality after MPTP intoxication; assay type: in vivo, mouse; details: 24 hours after treatment by the MPTP (4 injections of 20 mg/kg at 2-hour intervals)
Text: Brain samples were collected after mice anesthesia and sacrifice.

[1] = test system: Tyrosine Hydroxylase in total brain protein extract; assay: MPTP mouse model of Parkinson's disease: tyrosine hydroxylase western blotting; details: MPTP alone (4 × 20 mg/kg, solvent-treated), control = 100
Description: Each treated group included 10 animals for the MPTP intoxicated groups and 5 animals for the controls.
(§1) C57BL/6J mice are intoxicated with MPTP using an acute protocol, as described hereafter. On the day of MPTP exposure each mouse received 4 injections of MPTP solution (20 mg/kg) at 2-hour intervals for 1 day.
Before brain extraction mice were perfused with 0.9% NaCl 2.6 mM EDTA solution.
And the right brain was immediately frozen in nitrogen liquid for protein analysis. The proteins were extracted with the homogenizer ultra turrax IKA-T10 basic system and quantified using the BCA test (bicinchoninic acid assay).
30 μg of total brain protein were used for western blot analysis using 1:1000 dilution anti-tyrosine hydroxylase rabbit polyclonal antibody (Cat #AB152, Millipore) followed by 1:10000 horseradish peroxidase-conjugated anti-rabbit antibody (Jakson ImmunoResearch). Antibody to actin (Cat #A5316, Sigma Aldrich) were used as loading control followed by 1:10000 horseradish peroxidase-conjugated anti-mouse antibody (Jakson ImmunoResearch). Immunoreactive bands were detected using enhanced chemiluminescent reagents (GE Healthcare, Amersham, UK). Signal intensity was calculated using the Image J software.

[2] = test system: Tyrosine Hydroxylase in total brain protein extract; assay: MPTP mouse model of Parkinson's disease: tyrosine hydroxylase ELISA assay
Description: (§2) Each treated group included 10 animals for the MPTP intoxicated groups and 5 animals for the controls. The loss of tyrosine hydroxylase expression, indicative of dopaminergic neuron destruction, was analyzed by western blotting, immunohistochemistry and ELISA assay.
The mice were treated orally by gavage with 0.1 ml corresponding to 25 mg/kg in a 24 g mouse.
as §1
(§3) Dosing was done 2 times per day at 6-hour interval starting day 7 before intoxication and stopping 7 days after MPTP administration. […] Before brain extraction mice were perfused with 0.9% NaCl 2.6 mM EDTA solution.
(§4) The treatment started 7 days before MPTP administration and continued 7 days after.
(§5) After mouse sacrifice and dissection, the left brain was submerged in 4% paraformaldehyde in PBS (phosphate buffered saline) solution for paraffin embedding and then cut into 5 μM-thick coronal section. And the right brain was immediately frozen in nitrogen liquid for protein analysis. The proteins were extracted with the homogenizer ultra turrax IKA-T10 basic system and quantified using the BCA test (bicinchoninic acid assay).
The microliter plate wells were coated overnight at 4° C. with 5μg of total brain protein extract. […]

[3] = test system: Monoamine oxidase activity from total brain protein extract; assay: MPTP mouse model: monoamine oxidase fluorometric assay; details: MPTP + masitinib 2 × 5 mg/kg, control = 100, MPTP = 108
Description: as §2
This stock solution was defrosted before treatment of mice. The mice were treated orally by gavage with 0.1 ml corresponding to 25 mg/kg in a 24 g mouse.
as §1, §3, §4, §5

[4] = test system: tyrosine hydroxylase in coronal brain sections; assay: MPTP mouse model of Parkinson's disease: tyrosine hydroxylase immunohistochemistry; assay type: in vivo; details: immunohistochemistry on 5 μm-thick coronal sections; MPTP + masitinib 2 × 5 mg/kg
[5] = test system: human cord blood mast cells; details: cited from earlier work
[6] = test system: Ba/F3 cells expressing PDGFR-α; details: read-out: IC50, PDGF-BB-stimulated proliferation and PDGFR-α tyrosine phosphorylation; cited from earlier work

| Mean expression of tyrosine hydroxylase ([2]; masitinib alone 2 × 30 mg/kg per os, no MPTP, control = 0.275, 30 mg/kg) | Monoamine oxidase fluorometric assay [3] | SMILES | mortality (C57BL/6 mice) | Relative average expression of tyrosine hydroxylase [1] | Mean expression of tyrosine hydroxylase ([2]; MPTP + masitinib 2 × 5 mg/kg per os, day -7 to day 7, control = 0.275, MPTP = 0.175, 5 mg/kg) | in situ staining of tyrosine hydroxylase [4] | FcϵRI-mediated degranulation [5] | IC50 [6] [nM] |
| --- | --- | --- | --- | --- | --- | --- | --- | --- |
|  |  | CN1CC=C(c2ccccc2)CC1 [MPTP, 1-methyl-4-phenyl-1,2,3,6-tetrahydropyridine] | No mortality | 77 |  |  |  |  |
| did not modify significantly | maintained | Cc1ccc(NC(=O)c2ccc(CN3CCN(C)CC3)cc2)cc1Nc1nc(-c2cccnc2)cs1 [Masitinib, 4-(4-methylpiperazin-l-ylmethyl)-N-[4-methyl-3-(4-pyridin-3ylthiazol-2-ylamino)phenyl]benzamide] |  |  | significant attenuation | positive effect | inhibition | 300 ± 5 |
